Laboratory results published in ChEMBL document CHEMBL4392848, “Proline-based hydroxamates targeting the zinc-dependent deacetylase LpxC: Synthesis, antibacterial properties, and docking studies” (Bioorg Med Chem, 2019).
In brackets after ≈: the same amount, converted by molar mass. Activity calls are given as the source filed them. The rule behind the calls is not given here.

How the values were obtained:
[1] = test system: Escherichia coli; assay: Antibacterial activity against Escherichia coli BL21(DE3) measured after 20 hrs by microdilution method; assay type: functional
[2] = test system: Escherichia coli; assay: Antibacterial activity against Escherichia coli D22 measured after 20 hrs by microdilution method; assay type: functional; settings: D22, 20 h
[3] = target: Matrix metalloproteinase-9 (Homo sapiens, UniProt P14780); assay: Inhibition of human MMP9 using (7-methoxycoumarin-4-yl)acetyl-Pro-Leu-Gly-Leu-(3-(2,4-dinitrophenyl)-L-2,3-diamino-propionyl)Ala-Arg-NH2 as substrate preincubated for 30 mins followed by substrate addition and measured by fluorescence assay
Chain of Matrix metalloproteinase-9 (P14780 whole entry, the tested form may be a part): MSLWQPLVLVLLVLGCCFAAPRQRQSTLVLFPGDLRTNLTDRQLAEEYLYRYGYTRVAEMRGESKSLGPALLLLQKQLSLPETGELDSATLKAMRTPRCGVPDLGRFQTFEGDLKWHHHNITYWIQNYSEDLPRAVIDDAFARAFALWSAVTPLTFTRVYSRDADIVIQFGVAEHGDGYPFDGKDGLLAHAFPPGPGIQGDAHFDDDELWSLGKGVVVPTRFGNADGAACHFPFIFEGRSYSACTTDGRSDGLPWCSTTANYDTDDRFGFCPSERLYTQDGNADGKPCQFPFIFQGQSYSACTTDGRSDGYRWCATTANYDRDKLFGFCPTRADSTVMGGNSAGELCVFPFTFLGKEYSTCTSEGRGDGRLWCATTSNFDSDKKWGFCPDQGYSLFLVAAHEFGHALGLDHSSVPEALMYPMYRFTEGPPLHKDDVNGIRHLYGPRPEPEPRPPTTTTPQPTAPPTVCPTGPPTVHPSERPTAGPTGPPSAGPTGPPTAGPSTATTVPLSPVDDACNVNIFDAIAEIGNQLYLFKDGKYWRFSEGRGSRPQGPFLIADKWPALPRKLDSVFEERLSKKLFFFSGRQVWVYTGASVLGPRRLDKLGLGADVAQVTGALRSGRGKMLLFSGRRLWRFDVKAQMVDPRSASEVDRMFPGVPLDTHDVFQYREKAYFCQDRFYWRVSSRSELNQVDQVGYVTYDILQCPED

[4] = test system: Pseudomonas aeruginosa; assay: Antibacterial activity against Pseudomonas aeruginosa assessed as diameter of inhibition zone measured after 24 hrs by agar disc diffusion method; assay type: functional
[5] = test system: Klebsiella oxytoca; assay: Antibacterial activity against Klebsiella oxytoca assessed as diameter of inhibition zone measured after 24 hrs by agar disc diffusion method; assay type: functional
[6] = Inhibition of Escherichia coli LpxC C63A mutant using UDP-3-O-[(R)-3-hydroxymyristoyl]-N-acetylglucosamine as substrate measured after 30 mins by fluorescence based microplate assay
[7] = target: Neutrophil collagenase (Homo sapiens, UniProt P22894); assay: Inhibition of human MMP8 using (7-methoxycoumarin-4-yl)acetyl-Pro-Leu-Gly-Leu-(3-(2,4-dinitrophenyl)-L-2,3-diamino-propionyl)Ala-Arg-NH2 as substrate preincubated for 30 mins followed by substrate addition and measured by fluorescence assay
Chain of Neutrophil collagenase (P22894 whole entry, the tested form may be a part): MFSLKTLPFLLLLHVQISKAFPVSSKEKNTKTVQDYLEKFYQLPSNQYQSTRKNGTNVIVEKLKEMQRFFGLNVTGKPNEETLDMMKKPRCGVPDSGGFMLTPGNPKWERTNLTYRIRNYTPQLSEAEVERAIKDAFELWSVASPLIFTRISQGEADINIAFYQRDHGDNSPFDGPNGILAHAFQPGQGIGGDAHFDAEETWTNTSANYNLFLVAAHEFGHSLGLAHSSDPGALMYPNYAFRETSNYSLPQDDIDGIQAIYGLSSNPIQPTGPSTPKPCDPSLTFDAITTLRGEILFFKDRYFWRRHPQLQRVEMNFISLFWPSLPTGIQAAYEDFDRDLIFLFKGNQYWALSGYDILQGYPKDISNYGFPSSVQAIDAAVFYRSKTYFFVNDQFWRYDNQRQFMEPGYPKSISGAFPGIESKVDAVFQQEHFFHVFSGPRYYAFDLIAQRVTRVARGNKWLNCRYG

[8] = test system: Citrobacter freundii; assay: Antibacterial activity against Citrobacter freundii assessed as diameter of inhibition zone measured after 24 hrs by agar disc diffusion method; assay type: functional
[9] = test system: Escherichia coli; assay: Antibacterial activity against Escherichia coli D22 assessed as diameter of inhibition zone measured after overnight incubation by agar disc diffusion method; assay type: functional
[10] = target: 72 kDa type IV collagenase (Homo sapiens, UniProt P08253); assay: Inhibition of human MMP2 using (7-methoxycoumarin-4-yl)acetyl-Pro-Leu-Gly-Leu-(3-(2,4-dinitrophenyl)-L-2,3-diamino-propionyl)Ala-Arg-NH2 as substrate preincubated for 30 mins followed by substrate addition and measured by fluorescence assay
Chain of 72 kDa type IV collagenase (P08253 whole entry, the tested form may be a part): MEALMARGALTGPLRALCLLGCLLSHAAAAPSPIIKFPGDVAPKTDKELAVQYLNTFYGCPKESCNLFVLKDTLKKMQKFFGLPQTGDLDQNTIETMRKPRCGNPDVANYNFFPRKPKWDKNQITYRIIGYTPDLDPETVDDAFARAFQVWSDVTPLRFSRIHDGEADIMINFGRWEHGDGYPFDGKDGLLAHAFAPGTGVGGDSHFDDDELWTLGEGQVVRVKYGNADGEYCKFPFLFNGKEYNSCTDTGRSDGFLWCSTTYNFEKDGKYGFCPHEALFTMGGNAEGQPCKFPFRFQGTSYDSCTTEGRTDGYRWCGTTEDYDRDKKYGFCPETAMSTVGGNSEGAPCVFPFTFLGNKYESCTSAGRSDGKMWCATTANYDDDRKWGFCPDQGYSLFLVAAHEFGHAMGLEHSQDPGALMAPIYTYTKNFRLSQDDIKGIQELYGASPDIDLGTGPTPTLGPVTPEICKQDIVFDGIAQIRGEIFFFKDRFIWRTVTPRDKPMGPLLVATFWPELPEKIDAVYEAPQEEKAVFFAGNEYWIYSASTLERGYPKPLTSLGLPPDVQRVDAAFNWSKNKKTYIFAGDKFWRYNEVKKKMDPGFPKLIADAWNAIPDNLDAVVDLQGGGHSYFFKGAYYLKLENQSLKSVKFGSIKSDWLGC

[11] = test system: Proteus vulgaris; assay: Antibacterial activity against Proteus vulgaris assessed as diameter of inhibition zone measured after 24 hrs by agar disc diffusion method; assay type: functional
[12] = test system: Klebsiella aerogenes; assay: Antibacterial activity against Enterobacter aerogenes assessed as diameter of inhibition zone measured after 24 hrs by agar disc diffusion method; assay type: functional
[13] = test system: Escherichia coli; assay: Antibacterial activity against Escherichia coli BL21(DE3) assessed as diameter of inhibition zone measured after overnight incubation by agar disc diffusion method; assay type: functional
[14] = test system: Enterobacter cloacae; assay: Antibacterial activity against Enterobacter cloacae assessed as diameter of inhibition zone measured after 24 hrs by agar disc diffusion method; assay type: functional
[15] = target: Collagenase 3 (Homo sapiens, UniProt P45452); assay: Inhibition of human MMP13 using (7-methoxycoumarin-4-yl)acetyl-Pro-Leu-Gly-Leu-(3-(2,4-dinitrophenyl)-L-2,3-diamino-propionyl)Ala-Arg-NH2 as substrate preincubated for 30 mins followed by substrate addition and measured by fluorescence assay
[16] = test system: Proteus mirabilis; assay: Antibacterial activity against Proteus mirabilis assessed as diameter of inhibition zone measured after 24 hrs by agar disc diffusion method; assay type: functional
[17] = test system: Klebsiella pneumoniae; assay: Antibacterial activity against Klebsiella pneumoniae assessed as diameter of inhibition zone measured after 24 hrs by agar disc diffusion method; assay type: functional
[18] = test system: Escherichia coli; assay: Inhibition of Escherichia coli LpxC C63A mutant at 200 uM using UDP-3-O-[(R)-3-hydroxymyristoyl]-N-acetylglucosamine as substrate measured after 30 mins by fluorescence based microplate assay
[19] = Selectivity ratio of IC50 for human MMP8 to IC50 for human MMP2; assay type: ADME
[20] = Selectivity ratio of IC50 for human MMP8 to IC50 for human MMP13; assay type: ADME
[21] = Selectivity ratio of IC50 for human MMP9 to IC50 for human MMP13; assay type: ADME
[22] = target: MMP-2/MMP-9 (Homo sapiens, UniProt P08253+P14780); assay: Selectivity ratio of IC50 for human MMP9 to IC50 for human MMP2; assay type: ADME

Row | MIC [1] [µM] | MIC [2] [µM] | IC50 [3] [µM] | IC50 [6] [µM] | IC50 [7] [µM] | IC50 [10] [µM] | IC50 [15] [µM] | SMILES | diameter of the inhibition zone (DIZ) [4] [mm] | diameter of the inhibition zone (DIZ) [5] [mm] | Ki [6] [µM] | diameter of the inhibition zone (DIZ) [8] [mm] | diameter of the inhibition zone (DIZ) [9] [mm] | diameter of the inhibition zone (DIZ) [11] [mm] | diameter of the inhibition zone (DIZ) [12] [mm] | diameter of the inhibition zone (DIZ) [13] [mm] | diameter of the inhibition zone (DIZ) [14] [mm] | diameter of the inhibition zone (DIZ) [16] [mm] | diameter of the inhibition zone (DIZ) [17] [mm] | other results
1 | > 256 | 16 (≈ 6.73 µg/mL) | 0.845 | 5.9 | 0.282 | 0.151 | 0.011 | CCCCCc1ccc(C#Cc2ccc(C(=O)N3C[C@H](O)C[C@H]3C(=O)NO)cc2)cc1 | <6 | 7 | 0.81 | 9 | 8 | 9 | <6 | <6 | 8 | <6 | <6 | 
2 | > 256 | 16 (≈ 7.19 µg/mL) | 1 | 29.5 | 0.198 | 0.055 | 0.057 | O=C(NO)[C@@H]1C[C@H](O)CN1C(=O)c1ccc(C#Cc2ccc(CN3CCOCC3)cc2)cc1 | <6 | 8 | 4.1 | 12 | 19.5 | 9 | 15 | 11.3 | 8 | 11 | 10 | 
3 | 64 (≈ 27.7 µg/mL) | 16 (≈ 6.94 µg/mL) | 4 | 45.6 | 2 | 0.57 | 0.28 | O=C(NO)[C@@H]1CCCN1C(=O)c1ccc(C#Cc2ccc(CN3CCOCC3)cc2)cc1 | <6 | 9 | 6.3 | 12 | 20 | 9 | 15 | 13.2 | 13 | 12 | 15 | 
4 | > 256 | 128 (≈ 61.6 µg/mL) | > 10 | > 200 |  | > 10 | 5 | O=C(NO)[C@H]1[C@H](O)[C@H](O)CN1C(=O)c1ccc(C#Cc2ccc(CN3CCSCC3)cc2)cc1 | <6 | 7 | > 27.6 | <6 | 8.3 | <6 | <6 | <6 | <6 | <6 | <6 | inhibition [18]: inactive
5 | > 256 | 8 (≈ 3.48 µg/mL) | > 10 | 62.1 | > 10 | > 10 | > 10 | O=C(NO)[C@@H]1C[C@@H](O)CN1Cc1ccc(C#Cc2ccc(CN3CCOCC3)cc2)cc1 | <6 | <6 | 8.6 | <6 | 21 | <6 | <6 | 12.3 | <6 | <6 | 7 | 
6 | 128 (≈ 59.6 µg/mL) | 16 (≈ 7.45 µg/mL) | 1.8 | 2.5 | 0.172 | 0.032 | 0.039 | O=C(NO)[C@@H]1[C@H](O)[C@H](O)CN1C(=O)c1ccc(C#Cc2ccc(CN3CCOCC3)cc2)cc1 |  |  | 0.34 |  | 18 |  |  | <6 |  |  |  | Ratio IC50 [19]: 4 to 5; Ratio IC50 [20]: 4 to 5; Ratio IC50 [21]: 51; Ratio IC50 [22]: 51
7 | > 256 | 16 (≈ 7.19 µg/mL) | 9 | 47.9 | 2 | 1 | 1 | O=C(NO)[C@@H]1C[C@@H](O)CN1C(=O)c1ccc(C#Cc2ccc(CN3CCOCC3)cc2)cc1 | <6 | <6 | 6.6 | 10 | 20.7 | <6 | 16 | 7.5 | <6 | 9 | 9 | 
8 | > 256 | 8 (≈ 3.47 µg/mL) | 0.731 | 63.4 | 0.05 | 0.503 | 0.636 | O=C(NO)[C@H]1CCCN1C(=O)c1ccc(C#Cc2ccc(CN3CCOCC3)cc2)cc1 | <6 | 8 | 8.7 | 12 | 24.7 | <6 | 9 | 11.3 | 9 | 9 | 11 | 
9 | > 256 | > 256 | > 10 | > 200 | > 10 | > 10 | 4.32 | O=C(NO)[C@H]1[C@H](O)[C@H](O)CN1C(=O)c1ccc(C#Cc2ccc(CN3CCOCC3)cc2)cc1 | <6 | 8 | > 27.6 | <6 | <6 | <6 | <6 | <6 | <6 | <6 | <6 | inhibition [18]: inactive
